Active and inactive are the calls of the source. The rule behind the calls is not given here.

In one test the test system is Mus musculus. Put plainly: Antidepressant activity in Mus musculus Kunming (mouse) assessed as reduction in immobility time at 10 to 40 mg/kg, ip administered 30 min before test by forced swim test. It is filed as functional, organism-based.
Details: not given
For `O=C(/C=C/c1ccccc1Br)c1c(O)cc(O)cc1O`, the outcome was Active.

The next test has as its system Mus musculus. Put plainly: Antidepressant activity in Mus musculus Kunming (mouse) assessed as reduction in immobility time at 10 mg/kg, ip administered 30 min before test by forced swim test relative to control. The format is functional. Further details: scale not given: the % may be the effect or the level left. To be noted: route intraperitoneal.
As to `COc1ccc(/C=C/C(=O)c2c(O)cc(O)cc2O)cc1OC`, the Activity turned out to be 17.57%.
For `Cc1ccc(/C=C/C(=O)c2c(O)cc(O)cc2O)cc1`, the Activity came to 17.35%.
For `O=C(/C=C/c1ccc(Br)cc1)c1c(O)cc(O)cc1O` [4-BROMO-2',4',6'-TRIHYDROXYCHALCONE], the Activity is 19.29%.
For the molecule `O=C(/C=C/c1cccc(Br)c1)c1c(O)cc(O)cc1O`, the Activity came out at 26.64%.
For `O=C(/C=C/c1ccc(Cl)cc1)c1c(O)cc(O)cc1O` [4-CHLORO-2',4',6'-TRIHYDROXYCHALCONE], the Activity came to 27.07%.
The same measure, in the same setting: the result for `Cc1ccc(/C=C/C(=O)c2c(O)cc(O)cc2O)cc1C` reads 13.31%; that for `CNCCC(Oc1ccc(C(F)(F)F)cc1)c1ccccc1` (stereo not given) [FLUOXETINE], 58.68%; that for `O=C(/C=C/c1ccc(F)cc1)c1c(O)cc(O)cc1O` [4-FLUORO-2',4',6'-TRIHYDROXYCHALCONE], 4.39%.
On to `COc1cc(/C=C/C(=O)c2c(O)cc(O)cc2O)ccc1O`, for which the Activity turned out to be 22.89%.
The same measure, in the same setting: the result for `O=C(/C=C/c1ccc(Cl)cc1Cl)c1c(O)cc(O)cc1O` reads 27.43%; that for `O=C(/C=C/c1cccc(Cl)c1)c1c(O)cc(O)cc1O`, 27.57%.
For the molecule `O=C(/C=C/c1ccccc1Cl)c1c(O)cc(O)cc1O`, the Activity was determined as 18.72%.
Turning to `COc1ccc(/C=C/C(=O)c2c(O)cc(O)cc2O)cc1` [4-METHOXYL-2',4',6'-TRIHYDROXYCHALCONE], the Activity turned out to be 11.09%.
Turning to `O=C(/C=C/c1cccc(F)c1)c1c(O)cc(O)cc1O`, the Activity came to 17.21%.
The same measure, in the same setting: the result for `O=C(/C=C/c1ccc(O)cc1)c1c(O)cc(O)cc1O` [4,2',4',6'-TETRAHYDROXYCHALCONE] reads 28.51%; that for `O=C(/C=C/c1ccccc1F)c1c(O)cc(O)cc1O`, 33.55%.
On the same count and under the same terms, the result for `O=C(/C=C/c1ccccc1Br)c1c(O)cc(O)cc1O` reads 50.04%.
As for `O=C(/C=C/c1ccc(O)c(O)c1)c1c(O)cc(O)cc1O` [3,4,2',4',6'-PENTAHYDROXYCHALCONE], the Activity was found to be 29.09%.

The subject of a further test is Mus musculus. Put plainly: Antidepressant activity in Mus musculus (mouse) assessed as reduction in immobility time at 10 to 40 mg/kg, ip administered 30 min before test by tail suspension test.
Details: not given
It is filed as functional, organism-based.
As for `O=C(/C=C/c1ccccc1Br)c1c(O)cc(O)cc1O`, the outcome was Active.

(Values after ChEMBL document CHEMBL3046575, “Synthesis and studies on antidepressant activity of 2,4,6-trihydroxychalcone derivatives” (2012).)
